From patent publication US8247211B2, “Glycopeptide antibiotics” (American Cyanamid Company, priority 2001, dated 2012)
In brackets after ≈: the same amount, converted by molar mass.

Key:
Experiment in all cases: In vitro antibacterial evaluation: minimum inhibitory concentration (MIC), broth dilution method
Assay type in all cases: cell-based
[1] = system: Enterococcus sp.; conditions: broth dilution, 5×10^5 CFU/mL, 18 hours at 35° C.
Description: (§1) The minimum inhibitory concentration (MIC), the lowest concentration of the antibiotic which inhibits growth of the test organism, is determined by the broth dilution method using Muller-Hinton II […] (Baltimore Biological Laboratories) following the recommendations of the National Committee for Clinical Laboratory Standards [Methods for dilution antimicrobial susceptibility tests for bacteria that grow aerobically, approved standard M7-A2, National Committee for Clinical Laboratory Standards, Villanova, Pa].
(§2) An inoculum level of 5×10^5 CFU/mL, and a range of antibiotic concentrations (64-0.06 μg/mL) is used. […] The test organisms include a spectrum of Gram-positive bacteria comprised of Staphylococcus sp., Streptococcus sp. and Enterococcus sp. These organisms include recent clinical isolates that are resistant to methicillin, penicillin and/or vancomycin.

[2] = system: Escherichia coli; conditions: 5×10^5 CFU/mL, 18 hours at 35° C.
Description: as §1, §2

[3] = system: Staphylococcus sp.; conditions: for MIC Staphylococcus aureus (ATCC 29213): strain ATCC 29213; for MIC Staphylococcus aureus (GC 1131): strain GC 1131; for MIC Staphylococcus aureus (GC 4541): strain GC 4541; for MIC Staphylococcus aureus (GC 4542): strain GC 4542; for MIC Staphylococcus aureus-SMITH (GC 4543): strain GC 4543; for MIC Staphylococcus aureus (GC 4544): strain GC 4544; for MIC Staphylococcus aureus (GC 4545): strain GC 4545; for MIC Staphylococcus haemolyticus (GC 4546): strain GC 4546; for MIC Coagulase Negative Staphylococcus (GC 4547): strain GC 4547; for MIC Coagulase Negative Staphylococcus (GC 4548): strain GC 4548; for MIC Coagulase Negative Staphylococcus (GC 4549): strain GC 4549; for MIC Coagulase Negative Staphylococcus (GC 4551): strain GC 4551; for MIC Coagulase Negative Staphylococcus (ID-3941): strain ID-3941
Description: as §1, §2

[4] = system: Streptococcus sp.; conditions: broth dilution, 5×10^5 CFU/mL, 18 hours at 35° C.
Description: as §1, §2

[5] = broth dilution, 18 hours at 35° C.

Row | Structure (SMILES) | MIC Enterococccus avium (GC 4558) [1] [µg/mL] | MIC Enterococccus faecalis (ATCC 29212) [1] [µg/mL] | MIC Enterococccus faecalis (GC 4552) [1] [µg/mL] | MIC Enterococccus faecalis (GC 4553) [1] [µg/mL] | MIC Enterococccus faecalis (GC 4554) [1] [µg/mL] | MIC Enterococccus faecium (GC 2243) [1] [µg/mL] | MIC Enterococccus faecium (GC 4556) [1] [µg/mL] | MIC Enterococccus faecium (GC 4557) [1] [µg/mL] | MIC Enterococcus faecalis (GC 2242) [1] [µg/mL] | MIC Escherichia coli (ATCC 25922) [2] [µg/mL] | MIC Staphylococcus aureus (ATCC 29213) [3] [µg/mL] | MIC Staphylococcus aureus (ATCC 29213) [3, 5] [µg/mL] | MIC Staphylococcus aureus (GC 1131) [3] [µg/mL] | MIC Staphylococcus aureus (GC 1131) [3, 5] [µg/mL] | MIC Staphylococcus aureus (GC 4541) [3] [µg/mL] | MIC Staphylococcus aureus (GC 4541) [3, 5] [µg/mL] | MIC Staphylococcus aureus (GC 4542) [3] [µg/mL] | MIC Staphylococcus aureus (GC 4542) [3, 5] [µg/mL] | MIC Staphylococcus aureus-SMITH (GC 4543) ([3]; 18 hours at 35° C.) [µg/mL] | MIC Staphylococcus aureus-SMITH (GC 4543) [3, 5] [µg/mL] | also measured
1 | CC(C)CC1OCC2OC(OC3C(CO)OC(Oc4ccc(CC5NC(=O)C(C(C)c6ccccc6)NC(=O)CNC(=O)C(CO)NC(=O)C(C(O)C6CNC(=N)N6C6OC(CO)C(O)C(O)C6O)NC(=O)C(C(O)C6CNC(=N)N6)NC5=O)cc4)C(O)C3O)C(O)C(O)C2O1 (stereo not drawn) [Example 107, Cyclo[glycyl-β-methylphenylalanyl-O-[4-O-[4,6-O-(3-methylbutylidene)hexopyranosyl]-hexopyranosyl]tyrosyl-3-(2-iminoimidazolidin-4-yl)seryl-3-(3-hexopyranosyl-2-iminoimidazolidin-4-yl)serylseryl]] | 8 (≈ 5.87 µM) | 4 (≈ 2.93 µM) | 4 (≈ 2.93 µM) | 8 (≈ 5.87 µM) | 4 (≈ 2.93 µM) | 8 (≈ 5.87 µM) | 4 (≈ 2.93 µM) | 2 (≈ 1.47 µM) | 4 (≈ 2.93 µM) | 64 (≈ 46.9 µM) | 1 (≈ 0.733 µM) | 1 (≈ 0.733 µM) | 2 (≈ 1.47 µM) | 2 (≈ 1.47 µM) | 2 (≈ 1.47 µM) | 2 (≈ 1.47 µM) | 1 (≈ 0.733 µM) | 1 (≈ 0.733 µM) | 1 (≈ 0.733 µM) | 1 (≈ 0.733 µM) | MIC Staphylococcus aureus (GC 4544) [3]: 2 µg/mL (≈ 1.47 µM); MIC Staphylococcus aureus (GC 4544) [3, 5]: 2 µg/mL (≈ 1.47 µM); MIC Staphylococcus aureus (GC 4545) [3]: 1 µg/mL (≈ 0.733 µM); MIC Staphylococcus aureus (GC 4545) [3, 5]: 1 µg/mL (≈ 0.733 µM); MIC Staphylococcus haemolyticus (GC 4546) [3]: 1 µg/mL (≈ 0.733 µM); MIC Staphylococcus haemolyticus (GC 4546) [3, 5]: 1 µg/mL (≈ 0.733 µM); MIC Coagulase Negative Staphylococcus (GC 4547) [3]: 1 µg/mL (≈ 0.733 µM); MIC Coagulase Negative Staphylococcus (GC 4547) [3, 5]: 1 µg/mL (≈ 0.733 µM); MIC Coagulase Negative Staphylococcus (GC 4548) [3]: 1 µg/mL (≈ 0.733 µM); MIC Coagulase Negative Staphylococcus (GC 4548) [3, 5]: 1 µg/mL (≈ 0.733 µM); MIC Coagulase Negative Staphylococcus (GC 4549) [3]: 1 µg/mL (≈ 0.733 µM); MIC Coagulase Negative Staphylococcus (GC 4549) [3, 5]: 1 µg/mL (≈ 0.733 µM); MIC Coagulase Negative Staphylococcus (GC 4551) [3]: 1 µg/mL (≈ 0.733 µM); MIC Coagulase Negative Staphylococcus (GC 4551) [3, 5]: 1 µg/mL (≈ 0.733 µM); MIC Coagulase Negative Staphylococcus (ID-3941) [3]: 1 µg/mL (≈ 0.733 µM); MIC Coagulase Negative Staphylococcus (ID-3941) [3, 5]: 1 µg/mL (≈ 0.733 µM); MIC Streptococcus agalactiae (GC 4564) [4]: 0.25 µg/mL (≈ 0.183 µM); MIC Streptococcus pneumoniae (GC 4565) [4]: <0.12 µg/mL; MIC Streptococcus pyogenes (ID-3187) [4]: 0.25 µg/mL (≈ 0.183 µM)
2 | CCCCCC1OCC2OC(OC3C(CO)OC(Oc4ccc(CC5NC(=O)C(C(C)c6ccccc6)NC(=O)CNC(=O)C(CO)NC(=O)C(C(O)C6CNC(=N)N6C6OC(CO)C(O)C(O)C6O)NC(=O)C(C(O)C6CNC(=N)N6)NC5=O)cc4)C(O)C3O)C(O)C(O)C2O1 (stereo not drawn) [Example 108, Cyclo[glycyl-β-methylphenylalanyl-O-[4-O-(4,6-O-hexylidenehexonyranosyl)hexopyranosyl]-tyrosyl-3-(2-iminoimidazolidin-4-yl)seryl-3-(3-hexopyranosyl-2-iminoimidazolidin-4-yl)-serylseryl]] | 2 (≈ 1.45 µM) | 2 (≈ 1.45 µM) | 2 (≈ 1.45 µM) | 2 (≈ 1.45 µM) | 2 (≈ 1.45 µM) | 2 (≈ 1.45 µM) | 2 (≈ 1.45 µM) | 1 (≈ 0.726 µM) | 2 (≈ 1.45 µM) | 32 (≈ 23.2 µM) | 1 (≈ 0.726 µM) | 1 (≈ 0.726 µM) | 1 (≈ 0.726 µM) | 1 (≈ 0.726 µM) | 1 (≈ 0.726 µM) | 1 (≈ 0.726 µM) | 1 (≈ 0.726 µM) | 1 (≈ 0.726 µM) | 1 (≈ 0.726 µM) | 1 (≈ 0.726 µM) | MIC Staphylococcus aureus (GC 4544) [3]: 1 µg/mL (≈ 0.726 µM); MIC Staphylococcus aureus (GC 4544) [3, 5]: 1 µg/mL (≈ 0.726 µM); MIC Staphylococcus aureus (GC 4545) [3]: 1 µg/mL (≈ 0.726 µM); MIC Staphylococcus aureus (GC 4545) [3, 5]: 1 µg/mL (≈ 0.726 µM); MIC Staphylococcus haemolyticus (GC 4546) [3]: 1 µg/mL (≈ 0.726 µM); MIC Staphylococcus haemolyticus (GC 4546) [3, 5]: 1 µg/mL (≈ 0.726 µM); MIC Coagulase Negative Staphylococcus (GC 4547) [3]: 1 µg/mL (≈ 0.726 µM); MIC Coagulase Negative Staphylococcus (GC 4547) [3, 5]: 1 µg/mL (≈ 0.726 µM); MIC Coagulase Negative Staphylococcus (GC 4548) [3]: <0.5 µg/mL; MIC Coagulase Negative Staphylococcus (GC 4548) [3, 5]: <0.5 µg/mL; MIC Coagulase Negative Staphylococcus (GC 4549) [3]: 1 µg/mL (≈ 0.726 µM); MIC Coagulase Negative Staphylococcus (GC 4549) [3, 5]: 1 µg/mL (≈ 0.726 µM); MIC Coagulase Negative Staphylococcus (GC 4551) [3]: 1 µg/mL (≈ 0.726 µM); MIC Coagulase Negative Staphylococcus (GC 4551) [3, 5]: 1 µg/mL (≈ 0.726 µM); MIC Coagulase Negative Staphylococcus (ID-3941) [3]: 1 µg/mL (≈ 0.726 µM); MIC Coagulase Negative Staphylococcus (ID-3941) [3, 5]: 1 µg/mL (≈ 0.726 µM); MIC Streptococcus agalactiae (GC 4564) [4]: <0.5 µg/mL; MIC Streptococcus pneumoniae (GC 4565) [4]: <0.5 µg/mL; MIC Streptococcus pyogenes (ID-3187) [4]: <0.5 µg/mL
3 | CCCCCCCC1OCC2OC(OC3C(CO)OC(Oc4ccc(CC5NC(=O)C(C(C)c6ccccc6)NC(=O)CNC(=O)C(CO)NC(=O)C(C(O)C6CNC(=N)N6C6OC(CO)C(O)C(O)C6O)NC(=O)C(C(O)C6CNC(=N)N6)NC5=O)cc4)C(O)C3O)C(O)C(O)C2O1 (stereo not drawn) [Example 109, Cyclo[glycyl-β-methylphenylalanyl-O-[4-O-(4,6-O-octylidenehexopyranosyl)hexopyranosyl]-tyrosyl-3-(2-iminoimidazoliclin-4-yl)seryl-3-(3-hexopyranosyl-2-iminoimidazolidin-4-yl)-serylseryl]] | 2 (≈ 1.42 µM) | 2 (≈ 1.42 µM) | 2 (≈ 1.42 µM) | 2 (≈ 1.42 µM) | 2 (≈ 1.42 µM) | 1 (≈ 0.712 µM) | 2 (≈ 1.42 µM) | 1 (≈ 0.712 µM) | 2 (≈ 1.42 µM) | 16 (≈ 11.4 µM) | 1 (≈ 0.712 µM) | 1 (≈ 0.712 µM) | 1 (≈ 0.712 µM) | 1 (≈ 0.712 µM) | 1 (≈ 0.712 µM) | 1 (≈ 0.712 µM) | 1 (≈ 0.712 µM) | 1 (≈ 0.712 µM) | 1 (≈ 0.712 µM) | 1 (≈ 0.712 µM) | MIC Staphylococcus aureus (GC 4544) [3]: 1 µg/mL (≈ 0.712 µM); MIC Staphylococcus aureus (GC 4544) [3, 5]: 1 µg/mL (≈ 0.712 µM); MIC Staphylococcus aureus (GC 4545) [3]: 1 µg/mL (≈ 0.712 µM); MIC Staphylococcus aureus (GC 4545) [3, 5]: 1 µg/mL (≈ 0.712 µM); MIC Staphylococcus haemolyticus (GC 4546) [3]: 1 µg/mL (≈ 0.712 µM); MIC Staphylococcus haemolyticus (GC 4546) [3, 5]: 1 µg/mL (≈ 0.712 µM); MIC Coagulase Negative Staphylococcus (GC 4547) [3]: 1 µg/mL (≈ 0.712 µM); MIC Coagulase Negative Staphylococcus (GC 4547) [3, 5]: 1 µg/mL (≈ 0.712 µM); MIC Coagulase Negative Staphylococcus (GC 4548) [3]: <0.5 µg/mL; MIC Coagulase Negative Staphylococcus (GC 4548) [3, 5]: <0.5 µg/mL; MIC Coagulase Negative Staphylococcus (GC 4549) [3]: 1 µg/mL (≈ 0.712 µM); MIC Coagulase Negative Staphylococcus (GC 4549) [3, 5]: 1 µg/mL (≈ 0.712 µM); MIC Coagulase Negative Staphylococcus (GC 4551) [3]: 1 µg/mL (≈ 0.712 µM); MIC Coagulase Negative Staphylococcus (GC 4551) [3, 5]: 1 µg/mL (≈ 0.712 µM); MIC Coagulase Negative Staphylococcus (ID-3941) [3]: 1 µg/mL (≈ 0.712 µM); MIC Coagulase Negative Staphylococcus (ID-3941) [3, 5]: 1 µg/mL (≈ 0.712 µM); MIC Streptococcus agalactiae (GC 4564) [4]: <0.5 µg/mL; MIC Streptococcus pneumoniae (GC 4565) [4]: <0.5 µg/mL; MIC Streptococcus pyogenes (ID-3187) [4]: <0.5 µg/mL
